Test results from patent EP4748839A1 (CSPC Zhongqi Pharmaceutical Technology (Shijiazhuang) Co., …, priority 2023, dated 2025).

What was measured:
GLP-1R = target: T1, GLP-1R (Homo sapiens, UniProt P43220); assay: GLP-1R agonistic effect in GLP1R-cAmp-Luc cells (luciferase reporter; titled 'Enzymatic assay'); format: cell-based; conditions: for EC50: 4 hours incubation, firefly luciferin signal
T1 construct: expressed in transfected cells
Method in brief: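 GLP1R-cAmp-Luc cells were exposed for 4 h at 37 °C to seven 5-fold dilutions starting at 125 nM final. Luciferin (150 µg/mL working) was then added for 30 min at room temperature, and the luciferase signal was read. EC50 came from the concentration–response curve.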

hERG channel = hERG channel (Homo sapiens, UniProt Q12809); assay: hERG test, automated patch-clamp in CHO cells stably expressing hERG; format: cell-based; conditions: hERG current inhibition, 0.37-30 µM, n = 2
Method: The potential inhibitory effects of the test compounds on the hERG channel were assessed using an automated patch-clamp system. In this study, the CHO cell line stably expressing the hERG gene was used, with Cisapride as the positive control.
The CHO-hERG-DUO cell line stably expressing the hERG channel was purchased from B'SYS GmbH. The cells were cultured in F12 (HAM) medium supplemented with 10%FBS, 100 U/mL penicillin-streptomycin, 100 µg/mL hygromycin, and 100 µg/mL G418. The cells were passaged three times per week and maintained at about 80% confluence.
The test compounds were dissolved in DMSO to prepare stock solutions at a final concentration of 10 mM; the stock solution was then serially diluted with DMSO in a 1: 3 ratio (3.33 mM, 1.11 mM and 0.37 mM); and the final concentrations of the test compounds were 30 µM, 10 µM, 3.33 µM, 1.11 µM and 0.37 µM.
A baseline was established using the blank vehicle. […] The hERG current was recorded for no less than 5 minutes to reach a steady state, and then 5 scans were captured. […] The experiments were performed in duplicate (n = 2) and hERG current inhibition by five concentrations of the compound were measured to determine the IC50.
The percent current inhibition was calculated using the following equation. […]
The IC50 was calculated using Graphpad Prism 8.0.

[1] = In vivo pharmacokinetic assay in mice; conditions: mouse; ICR mice (female), oral gavage 10 mg/kg, plasma
Method: Experimental animals: ICR mice (female, 22-25 g), purchased from Beijing Vital River Laboratory Animal Technology Co., Ltd.
Experimental procedure: ICR mice were administered the test compounds by gavage. Whole blood samples of the mice were collected at 15 min, 0.5 h, 1 h, 2 h, 4 h, 8 h and 24 h after administration and centrifuged to isolate plasma. The compound concentration was measured by LC-MS/MS, and pharmacokinetic parameters such as Area Under the Concentration-Time Curve (AUC) were calculated using Winnolin software.
Oral gavage dose: 10 mg/kg.
Measurement method: Quantitative analysis was carried out in the LC/MS/MS system after pretreatment with a protein precipitation method.

T1 sequence (P43220 24-463, species assumed): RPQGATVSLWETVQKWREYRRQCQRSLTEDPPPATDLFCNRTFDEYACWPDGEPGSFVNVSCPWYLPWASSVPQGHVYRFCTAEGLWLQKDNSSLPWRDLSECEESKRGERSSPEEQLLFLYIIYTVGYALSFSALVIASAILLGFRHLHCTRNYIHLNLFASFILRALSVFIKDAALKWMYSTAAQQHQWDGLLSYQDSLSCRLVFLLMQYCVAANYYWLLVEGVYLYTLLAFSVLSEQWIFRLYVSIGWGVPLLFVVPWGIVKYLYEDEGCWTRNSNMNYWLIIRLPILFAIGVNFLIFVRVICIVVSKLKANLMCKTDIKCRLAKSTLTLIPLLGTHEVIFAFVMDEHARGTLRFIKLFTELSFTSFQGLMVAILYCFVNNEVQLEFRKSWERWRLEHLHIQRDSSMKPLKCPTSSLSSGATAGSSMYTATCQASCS
Chain of hERG channel (Q12809 whole entry): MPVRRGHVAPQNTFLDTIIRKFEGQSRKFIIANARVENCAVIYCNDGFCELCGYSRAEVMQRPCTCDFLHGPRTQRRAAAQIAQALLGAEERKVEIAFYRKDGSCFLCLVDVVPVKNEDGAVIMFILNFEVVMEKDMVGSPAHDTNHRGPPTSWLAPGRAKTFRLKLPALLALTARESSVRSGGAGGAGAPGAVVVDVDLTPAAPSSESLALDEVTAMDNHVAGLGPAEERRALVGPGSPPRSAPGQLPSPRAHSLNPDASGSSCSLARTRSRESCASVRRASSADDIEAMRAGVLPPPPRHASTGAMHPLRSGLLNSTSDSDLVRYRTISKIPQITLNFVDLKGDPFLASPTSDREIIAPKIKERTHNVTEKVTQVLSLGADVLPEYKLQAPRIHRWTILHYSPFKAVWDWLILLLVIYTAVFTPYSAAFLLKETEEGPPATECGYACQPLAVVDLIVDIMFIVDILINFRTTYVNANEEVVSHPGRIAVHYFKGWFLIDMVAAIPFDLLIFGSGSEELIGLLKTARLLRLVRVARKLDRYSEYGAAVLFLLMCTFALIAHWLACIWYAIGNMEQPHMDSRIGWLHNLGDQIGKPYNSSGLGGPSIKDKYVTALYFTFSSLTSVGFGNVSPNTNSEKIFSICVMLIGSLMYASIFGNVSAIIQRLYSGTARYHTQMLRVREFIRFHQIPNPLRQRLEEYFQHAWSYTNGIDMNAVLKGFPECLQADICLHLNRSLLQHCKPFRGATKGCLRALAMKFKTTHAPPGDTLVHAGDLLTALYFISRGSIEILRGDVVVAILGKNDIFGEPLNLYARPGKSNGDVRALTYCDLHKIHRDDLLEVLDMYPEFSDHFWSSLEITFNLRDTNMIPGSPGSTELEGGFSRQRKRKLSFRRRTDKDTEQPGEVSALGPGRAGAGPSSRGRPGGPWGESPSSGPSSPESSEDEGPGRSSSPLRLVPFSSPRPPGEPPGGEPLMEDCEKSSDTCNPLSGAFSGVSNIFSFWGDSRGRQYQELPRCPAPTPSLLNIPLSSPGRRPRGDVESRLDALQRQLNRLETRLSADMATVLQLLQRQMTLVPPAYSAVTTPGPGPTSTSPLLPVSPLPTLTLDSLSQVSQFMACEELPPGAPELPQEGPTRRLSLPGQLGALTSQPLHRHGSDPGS

EC50 (GLP-1R)	EC50 of Positive reference / EC50 of Compound of the Present Application (GLP-1R; Positive reference is PF-06882961)	AUC(0-t) [1]	SMILES	IC50 (hERG channel; human, CHO-hERG-DUO cells stably expressing hERG)	IC50 (hERG channel; CHO-hERG-DUO cells)
≤ 1 nM	Ratio ≥10	–	COc1cc(C(F)(F)F)ccc1COc1cccc(-c2cc(F)c(Cc3nc4ccc(C(=O)O)cc4n3C[C@@H]3CCO3)c3c2OCC3)n1 [Compound 71, (S)-2-((5-fluoro-7-(6-((2-methoxy-4-(trifluoromethyl)benzyl)oxy)pyridin-2-yl)-2,3-dihydrobenzofuran-4-yl)methyl)-1-(oxetan-2-ylmethyl)-1H-benzo[d]imidazole-6-carboxylic acid]	> 30 µM	–
≤ 1 nM	–	12200 ng·h/mL	COc1cc(C(=O)O)cc2c1nc(Cc1c(F)cc(-c3cccc(OCc4ccc(Cl)cc4OC(F)F)n3)c3c1CCO3)n2CC1(CF)CC1 [Compound 87, 2-((7-(6-((4-Chloro-2-(difluoromethoxy)benzyl)oxy)pyridin-2-yl)-5-fluoro-2,3-dihydrobenzofuran-4-yl)methyl)-1-((1-(fluoromethyl)cyclopropyl)methyl)-4-methoxy-1H-benzo[d]imidazole-6-carboxylic acid]	–	> 30 µM
